Results from patent EP4741389A1, “KAT6 INHIBITOR” (Shanghai Qilu Pharmaceutical Research and Development …, priority 2023, dated 2025).
pIC50: −log10 of the molar value.

Tests used:
KAT6A = molecular target: T1, KAT6A (Homo sapiens, UniProt Q92794); assay: KATs acetyltransferase enzyme activity assay (TR-FRET), KAT6A; format: biochemical; conditions: Biotin-H3 (1-21) and AcCOA, 90 minutes at room temperature
T1 construct: purchased Active Motif 81223

KAT6B = molecular target: T2, KAT6B (Homo sapiens, UniProt Q8WYB5); assay: KATs acetyltransferase enzyme activity assay (TR-FRET), KAT6B; format: biochemical; conditions: Biotin-H3 (1-21) and AcCOA, 90 minutes at room temperature
T2 construct: purchased Active Motif 81224
In short: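 TR-FRET assay in Tris-HCl buffer: enzyme preincubated with compound 15 min at room temperature, then biotin-H3(1-21) peptide and acetyl-CoA added for 90 min at room temperature. Acetylation detected with Eu-anti-acetyl-histone H4 lysine antibody and ULight-streptavidin (60 min), 665/620 nm ratio; IC50 from four-parameter logistic fit.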

[1] = Body weight changes and tolerability in the ZR-75-1 xenograft study; format: in vivo, Mouse; conditions: result in words; for body weight changes: differences among the groups, FIG. 1
Method: (§1) • Species: Mouse; • Strain: BALB/c nude mice; • Age and weight: 6-8 weeks old, weighing 19-26 grams; • Gender: Female; • Supplier: GemPharmatech Co., Ltd.; • Compound source: Compound A: [drawing 190] prepared with reference to patent CN114364672A.
(§2) A mixture containing 10×10^6 ZR-75-1 cells in 100 µL PBS and 100 µL Matrigel (final volume was 200 µL) was subcutaneously implanted into the right dorsal side (upper side) of each mouse. On day 18 after cell implantation, when the average tumor volume reached 138 mm^3, grouping and administration were initiated. Mice with tumor volumes ranging from 100 to 212 mm^3 were selected for the study. Mice were randomly assigned to groups based on body weight and tumor volume, with 7 mice per group. The day of grouping was designated as PG-D0, and administration for all groups started from PG-D0.
The effects of the test drugs Compound 2, Compound 5-P2, Compound 3, and Compound A on the body weight of the female BALB/c nude mouse model with subcutaneously implanted human breast cancer ZR-75-1 cell xenografts are shown in FIG. 1.

[2] = tested on: human breast cancer ZR-75-1 cell xenografts; assay: In vivo efficacy study in BALB/c nude mouse model with subcutaneous ZR-75-1 xenografts; conditions: for T/C / TGI / Tumor Volume: 0.3 mg/kg; for T/C / TGI: based on tumor volume on day 21 post-administration; for Tumor Volume: day 21 post-administration, female BALB/c nude mice, 7 per group
Description: IV. In vivo efficacy study of test drug Compound 2, Compound 5-P2, Compound 3, and Compound A in a BALB/c nude mouse model with subcutaneously implanted human breast cancer ZR-75-1 cell xenografts
The objective of this experiment is to evaluate the in vivo efficacy of the test drug Compound 2, Compound 5-P2, Compound 3, and Compound A in a BALB/c nude mouse model with subcutaneously implanted human breast cancer ZR-75-1 cell xenografts.
as §1
Human breast cancer ZR-75-1 (ATCC, CRL-1500) cells were cultured in vitro as adherent cultures. The culture conditions were: 1640 medium supplemented with 10 vol% FBS, 100 U/mL penicillin, and 100 µg/mL streptomycin, incubated in a 37°C, 5% CO2 cell culture incubator. Routine passaging was performed twice a week. When cell confluence reached 80%-90% and the cell number met the requirements, cells were harvested, counted, and inoculated.
Three days before cell implantation, a 17β-estrogen pellet (0.36 mg) was implanted into the left dorsal side of each mouse. Starting one week after pellet implantation, animals were urinated 2-3 times per week. If necessary, animals were urinated daily.
as §2
The experimental index is to investigate whether tumor growth is inhibited, delayed, or cured. Tumor diameters were measured three times per week using a vernier caliper. Tumor volume was calculated using the formula: V = 0.5a × b^2, where a and b represent the major and minor diameters of the tumor, respectively.
The anti-tumor efficacy of the compounds was evaluated using TGI (%) or the relative tumor proliferation rate T/C (%). TGI (%), reflects the tumor growth inhibition rate. TGI (%) was calculated as: TGI (%) = [1 - (Mean tumor volume of a treatment group at the end of administration - Mean tumor volume of the same treatment group at the start of administration) / (Mean tumor volume of the vehicle control group at the end of treatment - Mean tumor volume of the vehicle control group at the start of treatment)] × 100%.
Relative Tumor Proliferation Rate T/C (%): The calculation formula is as follows: T/C% = TRTV / CRTV ×100 % (TRTV: RTV of the treatment group; CRTV: RTV of the negative control group). The relative tumor volume (RTV) was calculated based on tumor measurement results using the formula RTV = Vt /V0, where V0 is the tumor volume of each mouse measured at the start of grouping and administration (i.e., d0), and Vt is the tumor volume of each mouse at a specific measurement time. The mean value for each group was then calculated. V0 and Vt correspond to tumor volume data from the same mouse.

T1 sequence (Q92794 488-778 limits assumed): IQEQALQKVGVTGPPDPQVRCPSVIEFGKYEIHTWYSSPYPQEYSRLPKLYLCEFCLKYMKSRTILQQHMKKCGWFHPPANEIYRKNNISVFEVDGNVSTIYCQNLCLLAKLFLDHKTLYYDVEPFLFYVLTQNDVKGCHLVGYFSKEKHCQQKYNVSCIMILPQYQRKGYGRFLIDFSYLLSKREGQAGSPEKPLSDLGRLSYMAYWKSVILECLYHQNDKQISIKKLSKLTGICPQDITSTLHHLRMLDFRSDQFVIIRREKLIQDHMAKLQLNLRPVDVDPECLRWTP
T2 sequence (Q8WYB5 whole entry): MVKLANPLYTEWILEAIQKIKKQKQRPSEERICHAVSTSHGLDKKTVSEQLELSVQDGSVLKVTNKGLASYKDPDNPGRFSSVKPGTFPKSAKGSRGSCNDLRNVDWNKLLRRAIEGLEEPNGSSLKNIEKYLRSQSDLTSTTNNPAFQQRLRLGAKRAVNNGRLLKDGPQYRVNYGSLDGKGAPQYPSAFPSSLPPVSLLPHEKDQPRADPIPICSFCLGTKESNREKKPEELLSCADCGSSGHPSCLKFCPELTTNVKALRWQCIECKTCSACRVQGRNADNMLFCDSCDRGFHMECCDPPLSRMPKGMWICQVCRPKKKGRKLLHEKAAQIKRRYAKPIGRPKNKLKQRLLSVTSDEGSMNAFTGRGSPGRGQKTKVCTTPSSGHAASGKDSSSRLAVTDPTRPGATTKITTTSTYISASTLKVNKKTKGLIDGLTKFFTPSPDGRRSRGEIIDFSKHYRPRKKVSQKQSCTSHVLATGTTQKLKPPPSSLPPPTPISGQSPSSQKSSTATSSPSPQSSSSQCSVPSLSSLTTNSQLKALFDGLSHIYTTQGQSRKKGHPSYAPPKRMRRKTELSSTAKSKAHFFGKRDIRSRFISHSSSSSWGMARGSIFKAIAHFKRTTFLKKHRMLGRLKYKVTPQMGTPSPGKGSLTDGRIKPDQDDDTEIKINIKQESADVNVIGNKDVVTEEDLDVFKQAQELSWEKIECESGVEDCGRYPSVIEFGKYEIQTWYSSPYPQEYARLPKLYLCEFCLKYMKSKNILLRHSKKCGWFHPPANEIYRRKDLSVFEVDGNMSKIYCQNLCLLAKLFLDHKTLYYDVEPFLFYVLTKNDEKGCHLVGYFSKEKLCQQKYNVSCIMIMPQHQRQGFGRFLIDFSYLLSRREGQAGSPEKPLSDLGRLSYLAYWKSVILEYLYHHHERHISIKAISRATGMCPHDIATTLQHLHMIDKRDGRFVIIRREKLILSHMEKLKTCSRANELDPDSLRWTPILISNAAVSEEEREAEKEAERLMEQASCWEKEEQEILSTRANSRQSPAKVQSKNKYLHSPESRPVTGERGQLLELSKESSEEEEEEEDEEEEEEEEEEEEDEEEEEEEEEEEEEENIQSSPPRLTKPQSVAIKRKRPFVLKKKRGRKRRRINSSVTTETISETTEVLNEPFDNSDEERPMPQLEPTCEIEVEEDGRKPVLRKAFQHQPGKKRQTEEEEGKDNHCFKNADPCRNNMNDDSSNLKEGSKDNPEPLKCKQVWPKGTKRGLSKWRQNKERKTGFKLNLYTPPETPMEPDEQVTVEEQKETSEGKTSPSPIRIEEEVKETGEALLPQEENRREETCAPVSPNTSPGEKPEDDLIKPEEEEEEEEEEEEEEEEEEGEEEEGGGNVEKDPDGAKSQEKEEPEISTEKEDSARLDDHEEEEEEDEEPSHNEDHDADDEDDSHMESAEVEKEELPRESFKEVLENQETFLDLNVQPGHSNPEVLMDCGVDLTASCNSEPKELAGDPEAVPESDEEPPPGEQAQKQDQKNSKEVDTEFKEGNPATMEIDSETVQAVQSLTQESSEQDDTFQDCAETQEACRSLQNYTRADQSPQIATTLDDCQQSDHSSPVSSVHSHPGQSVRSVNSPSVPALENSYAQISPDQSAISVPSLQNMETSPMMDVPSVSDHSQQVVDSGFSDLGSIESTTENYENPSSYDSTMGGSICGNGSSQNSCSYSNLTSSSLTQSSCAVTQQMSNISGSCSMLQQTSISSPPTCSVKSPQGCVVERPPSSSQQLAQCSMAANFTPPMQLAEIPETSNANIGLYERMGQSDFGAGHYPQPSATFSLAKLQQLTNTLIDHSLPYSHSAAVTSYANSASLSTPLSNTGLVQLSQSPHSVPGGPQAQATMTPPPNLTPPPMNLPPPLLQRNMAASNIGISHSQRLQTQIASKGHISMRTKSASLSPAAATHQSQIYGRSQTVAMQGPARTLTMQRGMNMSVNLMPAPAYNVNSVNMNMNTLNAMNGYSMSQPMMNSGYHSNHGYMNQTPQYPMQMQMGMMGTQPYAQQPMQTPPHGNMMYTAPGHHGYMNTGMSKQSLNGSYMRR

Row | SMILES | pIC50 (KAT6A) | pIC50 (KAT6B) | body weight changes [1] | tolerability in tumor-bearing mice ([1]; human breast cancer ZR-75-1 model) | T/C [2] [%] | TGI [2] [%] | Tumor Volume [2] [mm^3] | anti-tumor effects ([2]; ZR-75-1 xenograft model, tumor growth curves FIG. 2, result in words)
1 | COc1ccc2c(c1S(=O)(=O)Nc1noc3cc(Cn4cccn4)cc(OC)c13)OCC21CC1 [Compound 3, N-(6-((1H-Pyrazol-1-yl)methyl)-4-methoxybenzo[d]isoxazol-3-yl)-6-methoxy-2H-spiro[benzofuran-3,1'-cyclopropane]-7-sulfonamide] | 8.74 | 8.12 | not significant | tolerated | 12.95 | 104.47 | 106 ± 12 | more significant anti-tumor effects compared to Compound A
2 | COc1ccccc1S(=O)(=O)Nc1noc2cc(Cn3cccn3)cc(OC)c12 [Compound A, reference compound] | – | – | not significant | – | 33.17 | 80.40 | 278 ± 44 | –
